Test results from patent US12187728B2 (Raze Therapeutics, Inc., priority 2015, dated 2025).

Biological target: T1, Human MTHFD2 (Homo sapiens, UniProt P13995)
T1 construct: residues 36-350 in Uniport ID P13995; His6 (N); made in house; host or cells: E. coli
T1 sequence (P13995 36-350): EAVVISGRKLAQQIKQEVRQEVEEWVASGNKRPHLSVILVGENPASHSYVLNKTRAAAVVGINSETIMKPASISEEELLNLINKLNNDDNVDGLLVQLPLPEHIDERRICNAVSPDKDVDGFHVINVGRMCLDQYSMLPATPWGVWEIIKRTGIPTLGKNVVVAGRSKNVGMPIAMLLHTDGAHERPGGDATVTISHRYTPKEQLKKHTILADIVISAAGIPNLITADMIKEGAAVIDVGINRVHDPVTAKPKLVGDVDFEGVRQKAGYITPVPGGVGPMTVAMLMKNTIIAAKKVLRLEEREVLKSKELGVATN
Assay: MTHFD2 Activity Assay (dehydrogenase activity, diaphorase/resazurin coupled fluorescence)
Format: biochemical
Conditions: inhibitory activity (IC50 and/or binding constant); 0.2 nM MTHFD2, 11 concentrations
In short: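 His6-tagged MTHFD2 (res. 36-350), E. coli-expressed, at 0.2 nM preincubated with compound 15 min in Hepes pH 8.0/MgCl2/KH2PO4 buffer; 70 μM CH2-THF, 1 mM NAD+ added with resazurin/diaphorase, 30 min, EDTA stop. Resorufin fluorescence (ex 525/em 598); IC50 from 11-point 4-parameter fit.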

SMILES	IC50 [nM]
Cn1c(N[C@H]2CCC[C@@H]2O)nc2c1c(=O)n(Cc1cc3c(Cl)cccc3[nH]1)c(=O)n2C [Example 403, 1-((4-chloro-1H-indol-2-yl)methyl)-8-((1S,2S)-2-hydroxycyclopentylamino)-3,7-dimethyl-1H-purine-2,6(3H,7H)-dione]	10 to 1000
Cn1c(Nc2ccncc2)nc2c1c(=O)n(Cc1cc3c(C(F)(F)F)cccc3[nH]1)c(=O)n2C [Example 404, 3,7-dimethyl-8-(pyridin-4-ylamino)-1-((4-(trifluoromethyl)-1H-indol-2-yl)methyl)-1H-purine-2,6(3H,7H)-dione]	10 to 1000
CN(C)C(=O)CCc1nccc(Nc2nc3c(c(=O)n(Cc4cc5c(Cl)cccc5[nH]4)c(=O)n3C)n2C)n1 [Example 405, 3-(4-(1-((4-chloro-1H-indol-2-yl)methyl)-3,7-dimethyl-2,6-dioxo-2,3,6,7-tetrahydro-1H-purin-8-ylamino)pyrimidin-2-yl)-N,N-dimethylpropanamide]	10 to 1000
Cn1c(Nc2ccnc(CCC(=O)N3CCCCC3)n2)nc2c1c(=O)n(Cc1cc3c(Cl)cccc3[nH]1)c(=O)n2C [Example 406, 1-((4-chloro-1H-indol-2-yl)methyl)-3,7-dimethyl-8-(2-(3-oxo-3-(piperidin-1-yl)propyl)pyrimidin-4-ylamino)-1H-purine-2,6(3H,7H)-dione]	10 to 1000
Cn1c(Nc2ccc(CO)nc2)nc2c1c(=O)n(Cc1cc3c(Cl)cccc3[nH]1)c(=O)n2C [Example 407, 1-((4-chloro-1H-indol-2-yl)methyl)-8-(6-(hydroxymethyl)pyridin-3-ylamino)-3,7-dimethyl-1H-purine-2,6(3H,7H)-dione]	10 to 1000
COC(=O)c1ccc(Nc2nc3c(c(=O)n(Cc4cc5c(Cl)cccc5[nH]4)c(=O)n3C)n2C)cn1 [Example 408, Methyl 5-(1-((4-chloro-1H-indol-2-yl)methyl)-3,7-dimethyl-2,6-dioxo-2,3,6,7-tetrahydro-1H-purin-8-ylamino)picolinate]	10 to 1000
Cn1c(Nc2ccc(C(N)=O)nc2)nc2c1c(=O)n(Cc1cc3c(Cl)cccc3[nH]1)c(=O)n2C [Example 409, 5-(1-((4-chloro-1H-indol-2-yl)methyl)-3,7-dimethyl-2,6-dioxo-2,3,6,7-tetrahydro-1H-purin-8-ylamino)picolinamide]	10 to 1000
Cc1cccc2cc(Cn3c(=O)c4c(nc(Nc5ccncc5)n4C)n(C)c3=O)ccc12 [Example 410, 3,7-dimethyl-1-((5-methylnaphthalen-2-yl)methyl)-8-(pyridin-4-ylamino)-1H-purine-2,6(3H,7H)-dione]	10 to 1000
Cn1c(C(N)c2ccccc2)nc2c1c(=O)n(Cc1cc3c(Cl)cccc3[nH]1)c(=O)n2C (stereo not drawn) [Example 411, 8-(amino(phenyl)methyl)-1-((4-chloro-1H-indol-2-yl)methyl)-3,7-dimethyl-1H-purine-2,6(3H,7H)-dione]	10 to 1000
Cn1c(Nc2ccnc(CCC(=O)N3CCC3)n2)nc2c1c(=O)n(Cc1cc3c(Cl)cccc3[nH]1)c(=O)n2C [Example 413, 8-(2-(3-(azetidin-1-yl)-3-oxopropyl)pyrimidin-4-ylamino)-1-((4-chloro-1H-indol-2-yl)methyl)-3,7-dimethyl-1H-purine-2,6(3H,7H)-dione]	10 to 1000
CN(C(=O)CCc1nccc(Nc2nc3c(c(=O)n(Cc4cc5c(Cl)cccc5[nH]4)c(=O)n3C)n2C)n1)C1CC1 [Example 414, 3-(4-(1-((4-chloro-1H-indol-2-yl)methyl)-3,7-dimethyl-2,6-dioxo-2,3,6,7-tetrahydro-1H-purin-8-ylamino)pyrimidin-2-yl)-N-cyclopropyl-N-methylpropanamide]	10 to 1000
CNC(=O)CCc1nccc(Nc2nc3c(c(=O)n(Cc4cc5c(Cl)cccc5[nH]4)c(=O)n3C)n2C)n1 [Example 415, 3-(4-(1-((4-chloro-1H-indol-2-yl)methyl)-3,7-dimethyl-2,6-dioxo-2,3,6,7-tetrahydro-1H-purin-8-ylamino)pyrimidin-2-yl)-N-methylpropanamide]	10 to 1000
Cn1c(Nc2ccnc(CCC(=O)N3CCOCC3)n2)nc2c1c(=O)n(Cc1cc3c(Cl)cccc3[nH]1)c(=O)n2C [Example 416, 1-((4-chloro-1H-indol-2-yl)methyl)-3,7-dimethyl-8-((2-(3-morpholino-3-oxopropyl)pyrimidin-4-yl)amino)-3,7-dihydro-1H-purine-2,6-dione]	10 to 1000
Cn1c(Nc2ccnc(CCC(=O)N3CCCC3)n2)nc2c1c(=O)n(Cc1cc3c(Cl)cccc3[nH]1)c(=O)n2C [Example 417, 1-((4-chloro-1H-indol-2-yl)methyl)-3,7-dimethyl-8-(2-(3-oxo-3-(pyrrolidin-1-yl)propyl)pyrimidin-4-ylamino)-1H-purine-2,6(3H,7H)-dione]	10 to 1000
Cn1c(=O)n(Cc2cc3c(Cl)cccc3[nH]2)c(=O)c2c1nc(NC1CCCC(C(=O)O)C1)n2CCN (stereo not drawn) [Example 418, 3-(7-(2-aminoethyl)-1-((4-chloro-1H-indol-2-yl)methyl)-3-methyl-2,6-dioxo-2,3,6,7-tetrahydro-1H-purin-8-ylamino)cyclohexanecarboxylic acid]	10 to 1000
Cc1cccc2[nH]c(Cn3c(=O)c4c(nc(Nc5ccncc5)n4C)n(C)c3=O)c(C)c12 [Example 419, 1-((3,4-dimethyl-1H-indol-2-yl)methyl)-3,7-dimethyl-8-(pyridin-4-ylamino)-1H-purine-2,6(3H,7H)-dione]	10 to 1000
Cn1c(Nc2ccc(C(N)=O)cc2)nc2c1c(=O)n(Cc1cc3c(Cl)cccc3[nH]1)c(=O)n2C [Example 420, 4-[[1-[(4-chloro-1H-indol-2-yl)methyl]-3,7-dimethyl-2,6-dioxo-purin-8-yl]amino]benzamide]	10 to 1000
COc1nc2c(c(=O)n(Cc3cc4cccc(Cl)c4[nH]3)c(=O)n2C)n1C [Example 421, 1-[(7-chloro-1H-indol-2-yl)methyl]-8-methoxy-3,7-dimethyl-purine-2,6-dione]	10 to 1000
Cn1c(NC(=O)C(F)(F)F)nc2c1c(=O)n(Cc1cc3c(Cl)cccc3[nH]1)c(=O)n2C [Example 422, N-[1-[(4-chloro-1H-indol-2-yl)methyl]-3,7-dimethyl-2,6-dioxo-purin-8-yl]-2,2,2-trifluoro-acetamide]	10 to 1000
Cn1c(C2CCNC2)nc2c1c(=O)n(Cc1[nH]c3cccc(Cl)c3c1Cl)c(=O)n2C (stereo not drawn) [Example 423, 1-((3,4-dichloro-1H-indol-2-yl)methyl)-3,7-dimethyl-8-(pyrrolidin-3-yl)-1H-purine-2,6(3H,7H)-dione]	10 to 1000
Cn1c(C2CCCN2)nc2c1c(=O)n(Cc1cc3c(Cl)cccc3[nH]1)c(=O)n2C (stereo not drawn) [Example 424, 1-[(4-chloro-1H-indol-2-yl)methyl]-3,7-dimethyl-8-pyrrolidin-2-yl-purine-2,6-dione]	10 to 1000
Cn1c(C2CCNC2)nc2c1c(=O)n(Cc1cc3c(Cl)cccc3[nH]1)c(=O)n2C (stereo not drawn) [Example 425, 1-[(4-chloro-1H-indol-2-yl)methyl]-3,7-dimethyl-8-pyrrolidin-3-yl-purine-2,6-dione]	10 to 1000
CCN(CC)C(=O)CCc1nccc(Nc2nc3c(c(=O)n(Cc4cc5c(Cl)cccc5[nH]4)c(=O)n3C)n2C)n1 [Example 426, 3-(4-(1-((4-chloro-1H-indol-2-yl)methyl)-3,7-dimethyl-2,6-dioxo-2,3,6,7-tetrahydro-1H-purin-8-ylamino)pyrimidin-2-yl)-N,N-diethylpropanamide]	10 to 1000
Cn1c(Nc2ccc(C#N)nc2)nc2c1c(=O)n(Cc1cc3c(Cl)cccc3[nH]1)c(=O)n2C [Example 427, 5-(1-((4-chloro-1H-indol-2-yl)methyl)-3,7-dimethyl-2,6-dioxo-2,3,6,7-tetrahydro-1H-purin-8-ylamino)picolinonitrile]	10 to 1000
Cn1c(Nc2ccnc(CCC(=O)N3CCNCC3)n2)nc2c1c(=O)n(Cc1cc3c(Cl)cccc3[nH]1)c(=O)n2C [Example 428, 1-((4-chloro-1H-indol-2-yl)methyl)-3,7-dimethyl-8-(2-(3-oxo-3-(piperazin-1-yl)propyl)pyrimidin-4-ylamino)-1H-purine-2,6(3H,7H)-dione]	10 to 1000
Cn1c(Nc2ccc(CN)nc2)nc2c1c(=O)n(Cc1cc3c(Cl)cccc3[nH]1)c(=O)n2C [Example 429, 8-(6-(aminomethyl)pyridin-3-ylamino)-1-((4-chloro-1H-indol-2-yl)methyl)-3,7-dimethyl-1H-purine-2,6(3H,7H)-dione]	10 to 1000
Cn1c(C2CCCCN2)nc2c1c(=O)n(Cc1cc3c(Cl)cccc3[nH]1)c(=O)n2C (stereo not drawn) [Example 430, 1-((4-chloro-1H-indol-2-yl)methyl)-3,7-dimethyl-8-(piperidin-2-yl)-3,7-dihydro-1H-purine-2,6-dione]	10 to 1000
Cn1c(Nc2ccc(CC(N)=O)cc2)nc2c1c(=O)n(Cc1cc3c(Cl)cccc3[nH]1)c(=O)n2C [Example 431, 2-[4-[[1-[(4-chloro-1H-indol-2-yl)methyl]-3,7-dimethyl-2,6-dioxo-purin-8-yl]amino]phenyl]acetamide]	10 to 1000
Cn1c(Nc2ccc(CO)cc2)nc2c1c(=O)n(Cc1cc3c(Cl)cccc3[nH]1)c(=O)n2C [Example 432, 1-((4-chloro-1H-indol-2-yl)methyl)-8-(4-(hydroxymethyl)phenylamino)-3,7-dimethyl-1H-purine-2,6(3H,7H)-dione]	10 to 1000
COc1nc2c(c(=O)n(Cc3cc4cccc(Cl)c4n3C)c(=O)n2C)n1C [Example 433, 1-[(7-chloro-1-methyl-indol-2-yl)methyl]-8-methoxy-3,7-dimethyl-purine-2,6-dione]	10 to 1000
